What all share (format): binding
Test [1] addresses T1, panel of 442 kinases (Homo sapiens, UniProt P07948).
T1 construct: purchased KINOMEscan
Particulars: Compound Concentration 10 µM. The text has this:
(§1) We assessed the selectivity of members of this scaffold using the KINOMEscan methodology across a near comprehensive panel of 442 kinases [[18,27]].

Test [2] deals with T2, panel of 442 kinases (Homo sapiens, UniProt Q9UK32).
T2 construct: purchased KINOMEscan
The settings on record: compound concentration 10 µM; for % Ctrl, RSK4(Kin.Dom.1-N-terminal): kinase RSK4(Kin.Dom.1-N-terminal); for % Ctrl, RSK4(Kin.Dom.2-C-terminal): kinase RSK4(Kin.Dom.2-C-terminal).
From the text: as §1

For test [3], the target named is T3, panel of 442 kinases (Homo sapiens, UniProt O96017).
T3 construct: purchased KINOMEscan
Particulars: Compound Concentration 10 µM.
From the text: as §1

Test [4] addresses T4, panel of 442 kinases (Homo sapiens, UniProt Q15349).
T4 construct: purchased KINOMEscan
Particulars: compound concentration 10 µM; for % Ctrl, RSK3(Kin.Dom.1-N-terminal): kinase RSK3(Kin.Dom.1-N-terminal); for % Ctrl, RSK3(Kin.Dom.2-C-terminal): kinase RSK3(Kin.Dom.2-C-terminal).
From the text: as §1

T1 sequence (P07948 whole entry): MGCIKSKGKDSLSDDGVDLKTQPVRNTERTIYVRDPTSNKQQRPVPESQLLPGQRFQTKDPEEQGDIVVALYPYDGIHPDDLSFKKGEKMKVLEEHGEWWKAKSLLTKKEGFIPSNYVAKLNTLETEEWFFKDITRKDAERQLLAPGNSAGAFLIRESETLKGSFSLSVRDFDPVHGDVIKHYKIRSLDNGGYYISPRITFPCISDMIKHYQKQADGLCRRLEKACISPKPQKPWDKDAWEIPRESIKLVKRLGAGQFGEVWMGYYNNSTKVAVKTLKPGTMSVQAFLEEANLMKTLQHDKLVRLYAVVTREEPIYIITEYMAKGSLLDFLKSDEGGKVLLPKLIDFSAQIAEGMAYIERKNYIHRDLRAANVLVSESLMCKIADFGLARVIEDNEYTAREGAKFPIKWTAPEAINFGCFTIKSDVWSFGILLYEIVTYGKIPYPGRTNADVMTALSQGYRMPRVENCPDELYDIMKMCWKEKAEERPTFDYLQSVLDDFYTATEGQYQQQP
T2 sequence (Q9UK32 whole entry): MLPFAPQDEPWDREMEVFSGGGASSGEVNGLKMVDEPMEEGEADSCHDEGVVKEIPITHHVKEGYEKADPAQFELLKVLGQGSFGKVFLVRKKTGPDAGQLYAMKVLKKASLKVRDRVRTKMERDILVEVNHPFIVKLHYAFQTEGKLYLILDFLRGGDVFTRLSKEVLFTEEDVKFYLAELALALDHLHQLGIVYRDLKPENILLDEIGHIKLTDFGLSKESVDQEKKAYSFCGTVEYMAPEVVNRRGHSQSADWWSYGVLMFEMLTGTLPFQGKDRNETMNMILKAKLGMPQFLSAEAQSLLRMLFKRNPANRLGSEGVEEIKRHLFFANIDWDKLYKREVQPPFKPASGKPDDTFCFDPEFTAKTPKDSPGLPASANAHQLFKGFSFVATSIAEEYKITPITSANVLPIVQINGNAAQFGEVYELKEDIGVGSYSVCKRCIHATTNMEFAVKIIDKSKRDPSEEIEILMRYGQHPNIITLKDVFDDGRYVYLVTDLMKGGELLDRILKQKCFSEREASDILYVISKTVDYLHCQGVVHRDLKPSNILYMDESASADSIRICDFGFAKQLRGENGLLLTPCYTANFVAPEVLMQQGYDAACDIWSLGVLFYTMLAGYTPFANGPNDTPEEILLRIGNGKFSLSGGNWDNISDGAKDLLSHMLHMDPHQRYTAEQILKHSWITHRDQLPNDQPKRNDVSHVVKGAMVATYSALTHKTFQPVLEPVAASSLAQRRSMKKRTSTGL
T3 sequence (O96017 whole entry): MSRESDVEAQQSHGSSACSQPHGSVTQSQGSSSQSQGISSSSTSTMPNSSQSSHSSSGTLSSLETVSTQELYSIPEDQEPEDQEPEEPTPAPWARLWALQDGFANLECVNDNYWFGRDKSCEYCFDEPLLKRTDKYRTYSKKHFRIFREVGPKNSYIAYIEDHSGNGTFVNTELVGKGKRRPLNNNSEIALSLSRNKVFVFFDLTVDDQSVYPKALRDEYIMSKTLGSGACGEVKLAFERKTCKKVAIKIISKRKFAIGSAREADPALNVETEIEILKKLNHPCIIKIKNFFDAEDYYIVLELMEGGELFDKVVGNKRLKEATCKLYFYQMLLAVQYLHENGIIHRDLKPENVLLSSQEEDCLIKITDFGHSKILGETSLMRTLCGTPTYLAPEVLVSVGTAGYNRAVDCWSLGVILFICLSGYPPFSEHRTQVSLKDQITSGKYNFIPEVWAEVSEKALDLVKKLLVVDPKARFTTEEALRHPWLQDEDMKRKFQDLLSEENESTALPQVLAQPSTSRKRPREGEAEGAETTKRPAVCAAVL
T4 sequence (Q15349 whole entry): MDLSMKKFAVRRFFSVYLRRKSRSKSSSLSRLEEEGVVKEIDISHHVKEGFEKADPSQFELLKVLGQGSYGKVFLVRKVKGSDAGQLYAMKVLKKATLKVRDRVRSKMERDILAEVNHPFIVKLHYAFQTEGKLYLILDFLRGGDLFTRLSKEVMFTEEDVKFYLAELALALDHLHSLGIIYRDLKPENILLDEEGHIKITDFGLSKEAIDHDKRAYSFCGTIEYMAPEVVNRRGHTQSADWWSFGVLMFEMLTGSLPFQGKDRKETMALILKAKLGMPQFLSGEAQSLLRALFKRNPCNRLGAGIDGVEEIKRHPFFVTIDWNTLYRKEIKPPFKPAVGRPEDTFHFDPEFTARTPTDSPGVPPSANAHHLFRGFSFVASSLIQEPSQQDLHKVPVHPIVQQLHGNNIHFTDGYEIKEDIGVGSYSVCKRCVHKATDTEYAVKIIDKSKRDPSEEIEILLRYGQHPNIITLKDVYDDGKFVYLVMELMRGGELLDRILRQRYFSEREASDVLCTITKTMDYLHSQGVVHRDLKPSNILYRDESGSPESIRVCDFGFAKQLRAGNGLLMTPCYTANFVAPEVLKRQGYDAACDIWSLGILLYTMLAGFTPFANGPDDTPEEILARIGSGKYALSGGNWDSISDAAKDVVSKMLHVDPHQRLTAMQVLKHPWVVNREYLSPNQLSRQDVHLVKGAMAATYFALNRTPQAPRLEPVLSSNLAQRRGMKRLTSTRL

Take `COc1cc(C(=O)N2CCC(N3CCN(C)CC3)CC2)ccc1Nc1ncc2c(n1)N(C)c1ccccc1C(=O)N2C` [15 (LRRK2-IN-1)]: the “KINOMEscan: LYN” value at panel of 442 kinases [1] was found to be 100. Further, on panel of 442 kinases [2], the “% Ctrl, RSK4(Kin.Dom.1-N-terminal)” value amounted to 92 % Ctrl and the “% Ctrl, RSK4(Kin.Dom.2-C-terminal)” value is reported as 2.2 % Ctrl. Further, the “KINOMEscan: CHEK2” value on panel of 442 kinases [3] worked out at 66. For the same compound, on panel of 442 kinases [4], the “% Ctrl, RSK3(Kin.Dom.1-N-terminal)” value came to 83 % Ctrl and the “% Ctrl, RSK3(Kin.Dom.2-C-terminal)” value stood at 7.5 % Ctrl.
As to `COc1cc(C(=O)N2CCC(N3CCN(C)CC3)CC2)ccc1Nc1ncc2c(n1)N1CCc3cccc(c31)C(=O)N2C` [Compound 24], the “KINOMEscan: LYN” value on panel of 442 kinases [1] is listed as 83. On panel of 442 kinases [2], the “% Ctrl, RSK4(Kin.Dom.1-N-terminal)” value came to 100 % Ctrl and the “% Ctrl, RSK4(Kin.Dom.2-C-terminal)” value turned out to be 5.2 % Ctrl. On panel of 442 kinases [4], the “% Ctrl, RSK3(Kin.Dom.1-N-terminal)” value was determined as 100 % Ctrl and the “% Ctrl, RSK3(Kin.Dom.2-C-terminal)” value worked out at 13 % Ctrl.
Take `COc1cc(C(=O)N2CCC(N3CCN(C)CC3)CC2)ccc1Nc1ncc2c(n1)N(C1CCCC1)c1ccccc1C(=O)N2C` [Compound 25, 11-cyclopentyl-2-((2-methoxy-4-(4-(4-methylpiperazin-1-yl)piperidine-1-carbonyl)phenyl)amino)-5-methyl-5H-benzo[e]pyrimido[5,4-b][1,4]diazepin-6(11H)-one]: on panel of 442 kinases [1], the “KINOMEscan: LYN” value turned out to be 85. In addition, on panel of 442 kinases [2], the “% Ctrl, RSK4(Kin.Dom.1-N-terminal)” value turned out to be 100 % Ctrl and the “% Ctrl, RSK4(Kin.Dom.2-C-terminal)” value is 93 % Ctrl. Further, on panel of 442 kinases [3], the “KINOMEscan: CHEK2” value turned out to be 100. For the same compound, on panel of 442 kinases [4], the “% Ctrl, RSK3(Kin.Dom.1-N-terminal)” value is on record as 100 % Ctrl and the “% Ctrl, RSK3(Kin.Dom.2-C-terminal)” value came to 78 % Ctrl.
Regarding `CCOc1cc(C(=O)N2CCC(N3CCN(C)CC3)CC2)ccc1Nc1ncc2c(n1)N(C1CCCC1)c1ccccc1C(=O)N2C` [Compound 26], the “KINOMEscan: LYN” value on panel of 442 kinases [1] was 100. Moreover, on panel of 442 kinases [2], the “% Ctrl, RSK4(Kin.Dom.1-N-terminal)” value was determined as 100 % Ctrl and the “% Ctrl, RSK4(Kin.Dom.2-C-terminal)” value was 98 % Ctrl. Besides, on panel of 442 kinases [3], the “KINOMEscan: CHEK2” value is given as 100. Also, at panel of 442 kinases [4], the “% Ctrl, RSK3(Kin.Dom.1-N-terminal)” value came out at 100 % Ctrl and the “% Ctrl, RSK3(Kin.Dom.2-C-terminal)” value was 83 % Ctrl.

These data come from publication PMC3914206.
